The target of one assay is T1, S1P4 (Homo sapiens, UniProt O95977).
T1 construct: Tango fusion (own knowledge: protease cleavage site plus GAL4-VP16 transcription factor at the receptor's C-terminus); host or cells: U2OS (Tango -bla)
T1 sequence (O95977 1-384): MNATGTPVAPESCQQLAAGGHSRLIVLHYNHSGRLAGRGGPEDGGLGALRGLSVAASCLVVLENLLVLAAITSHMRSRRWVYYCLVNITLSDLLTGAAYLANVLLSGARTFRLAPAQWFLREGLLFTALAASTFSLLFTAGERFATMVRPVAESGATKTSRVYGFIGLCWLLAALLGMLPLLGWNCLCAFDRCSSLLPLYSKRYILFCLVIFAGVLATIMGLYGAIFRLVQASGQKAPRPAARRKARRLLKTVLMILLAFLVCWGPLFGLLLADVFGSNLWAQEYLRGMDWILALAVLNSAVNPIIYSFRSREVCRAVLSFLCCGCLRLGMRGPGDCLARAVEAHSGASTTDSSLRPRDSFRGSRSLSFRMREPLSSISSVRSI
In words: Specificity over other S1P receptors: S1P4-bla TANGO U2OS assay. The assay is classed as cell-based. To be noted: read-out: S1P4 agonist value (EC50). The method, then: Cells were seeded into 384-well black wall/clear bottom plates at 10^4 cells/well/19.5 μl assay media (DMEM-phenol free, 0.5% charcoal/dextran stripped serum, 2 mM glutamine, 0.1 mM NEAA, 1 mM Na-Pyruvate, 25 mM Hepes) and incubated for 18 hrs at 37° C. in 5% CO2. Dose response curves (10-point) were generated in 10 mM Hepes, 0.1% Pluronic F127, in the presence of Forskolin. Cells were treated with 0.5 μl compound in the presence of 2 μM Forskolin for 4 hrs at 37° C. The FRET-based β-lactamase fluorescent substrate (LiveBLAzer™-FRET B/G Loading Kit CC4-AM; Invitrogen) was prepared according to manufacturer's directions, and incubated with cells for 2 hrs at room temperature. Plates were read at Ex:410/Em:458 and Ex:410/Em:522, and the response ratio determined. Data was analyzed by non-linear regression to determine the EC50 for inhibition of Forskolin induced cAMP.
To assess compound specificity on other S1P receptors the following cell lines were used: S1P2 CRE-bla CHOK1, S1P3-Gα15 NFAT-bla HEK293T (Invitrogen), S1P4-bla TANGO U2OS (Invitrogen), S1P5-bla TANGO U2OS (Invitrogen). The same assay set up for S1P1 was used but without Forskolin. S1P4 and S1P5 assays were performed in FreeStyle Expression medium (Invitrogen). S1P5 cells were incubated for 48 hrs in prior to treatment with compound.

Assay [1] deals with CD4 or CD8 positive T cells. Kind of assay: Lymphopenia in mice. The assay is classed as in vivo. Particulars: female C57BL6 mice, 1 mg/kg oral gavage, area under the effect curve over 24 h. The method, then: In mice: Female C57BL6 mice (Simonsen Laboratories, Gilroy Calif.) were housed in an ALAAC accredited facility and the research was approved by the facilities Institutional Animal Care and Use Committee (IACUC). The animals were acclimated to the laboratory for at least 5 days prior to initiation of experiments. Mice (n=3/compound/time-point) were dosed by oral gavage with 1 mg/kg compound formulated in a vehicle consisting of 5% DMSO/5% Tween 20 and 90% 0.1N HCl. Control mice were dosed PO with the vehicle. Terminal whole blood samples were collected from isoflurane anesthetized mice by cardiac puncture into EDTA. Whole blood was incubated with rat anti-mouse CD16/CD32 (Mouse BD Fc Block, #553141), PE-Rat anti-mouse CD45R/B220 (BD #553089), APC-Cy7-Rat anti-mouse CD8a (BD #557654), and Alexa Fluor647-Rat anti-mouse CD4 (BD #557681) for 30 min on ice. Red blood cells were lysed using BD Pharm Lyse Lysing buffer (#555899) and white blood cells were analyzed by FACS. Lymphopenia was expressed as the % of white blood cells that were CD4 or CD8 positive T cells. The overall lymphopenia response over 24 h was estimated by calculating the area under the effect curve (AUEC) using the linear trapezoidal rule.

For the next assay, the target named is S1P1/EDG1 (Homo sapiens, UniProt P21453). In words: Phosphorylated-ERK1/2 In Cell Western, wild type S1P1 in CHOK1 cells. The assay is classed as cell-based. The method, then: CHOK1 cells were transfected using Fugene (Roche). Stably expressing mixed pools were selected with 2 mg/ml G418. Expression of functional S1P1/EDG1 receptor was confirmed by cell surface FACS with a S1P1 antibody (R&D Systems, clone 218713). Stable pools were seeded at 40,000 cells/well in a clear bottom 96-well tray, and incubated at 37° C. in 5% CO2 for 18 hrs. Cells were serum-starved in FreeStyle 293 medium (Invitrogen) for 4-6 h, then incubated for 5 min with a dose response of compound, in duplicate. Cells were fixed with 4% paraformaldehyde for 20 min, permeabilized with 0.1% Triton X-100 in PBS (4×5 min washes) and blocked for 1 h in Odyssey Blocking Buffer (LI-COR). All incubations were at room temperature. Cells were incubated for 18 h at 4° C. in Rabbit anti-Phospho-ERK1/2 (Cell Signaling #4377) and Mouse anti-ERK1/2 (Cell Signaling #9107) both diluted 1:800 in Odyssey Blocking Buffer. Plates were washed with 0.1% Tween-20 in PBS and then incubated with Odyssey Blocking Buffer containing IRDye 680-labeled goat anti-rabbit antibody (#926-32221; diluted 1/500) and IRDye 800CW-labeled goat anti-mouse antibody (#926-32210; diluted 1/1000). Plates were washed with 0.1% Tween-20 in PBS, all liquid was removed from the wells and the plates were scanned using a LICOR Odyssey scanner. […] Data was analyzed by non-linear regression using GraphPad Prism to determine the EC50 of binding.

A further assay concerns the target T2, S1P1 N101A (Homo sapiens, UniProt P21453, N101A).
T2 construct: expressed in transfected cells; host or cells: CHOK1
In words: Phosphorylated-ERK1/2 In Cell Western, S1P1 N101A mutant in CHOK1 cells. The assay is classed as cell-based. The method, then:
A. Quick-change mutagenesis with PfuTurbo DNA polymerase (Stratagene) was conducted using S1P1/pcDNA3.1 (Missouri S&T cDNA Resource Centre) as the template. Primers were as follows: […]
PCR conditions were 15 cycles with the following parameters: 95° C. 30 sec, 58° C. 30 sec, 68° C. for 60 sec. All constructs were sequence verified.
CHOK1 cells were transfected using Fugene (Roche). Stably expressing mixed pools were selected with 2 mg/ml G418. Expression of functional S1P1/EDG1 receptor was confirmed by cell surface FACS with a S1P1 antibody (R&D Systems, clone 218713). Stable pools were seeded at 40,000 cells/well in a clear bottom 96-well tray, and incubated at 37° C. in 5% CO2 for 18 hrs. Cells were serum-starved in FreeStyle 293 medium (Invitrogen) for 4-6 h, then incubated for 5 min with a dose response of compound, in duplicate. Cells were fixed with 4% paraformaldehyde for 20 min, permeabilized with 0.1% Triton X-100 in PBS (4×5 min washes) and blocked for 1 h in Odyssey Blocking Buffer (LI-COR). All incubations were at room temperature. Cells were incubated for 18 h at 4° C. in Rabbit anti-Phospho-ERK1/2 (Cell Signaling #4377) and Mouse anti-ERK1/2 (Cell Signaling #9107) both diluted 1:800 in Odyssey Blocking Buffer. Plates were washed with 0.1% Tween-20 in PBS and then incubated with Odyssey Blocking Buffer containing IRDye 680-labeled goat anti-rabbit antibody (#926-32221; diluted 1/500) and IRDye 800CW-labeled goat anti-mouse antibody (#926-32210; diluted 1/1000). Plates were washed with 0.1% Tween-20 in PBS, all liquid was removed from the wells and the plates were scanned using a LICOR Odyssey scanner. The phospho-ERK1/2 signal was normalized to the ERK1/2 signal. Data was analyzed by non-linear regression using GraphPad Prism to determine the EC50 of binding.

For a further assay, the system named is TNBS induced colitis. In words: TNBS Crohn's colitis model in rats. The assay is classed as in vivo, Sprague-Dawley rat. To be noted: 1 mg/kg oral daily for six days, 31% in the diseased rats. The method, then:
Male Sprague-Dawley rats (180-200 g) were acclimatized for seven days and then assigned to 8 rats per group so that each group had approximately the same mean weight. Twenty-four hours prior to disease initiation, rats are deprived of food. Rats were anaesthetized and weighed, then 80 mg/kg TNBS solution (50% TNBS: 50% 200 proof ethanol) was instilled into colon via a 20 g feeding needle inserted into the anus. The rats were maintained in head down position until recovery from anesthesia. Daily oral dosing was initiated 2 h post TNBS-instillation for six days. Prednisolone served as a positive control and was administered orally daily at 10 mg/kg. Body weights were monitored daily and 24 h after the last dose, all groups are terminated. The colon was removed, flushed of fecal matter and examined for gross changes including strictures, adhesions and ulcers. The colon length, weight of the distal 2 cm, and wall thickness was recorded.

Each structure is given as a SMILES string. Where a name gives a salt, the structure may show the parent alone.

The source of these data is US9388147B2 (Receptos, Inc., priority 2009, dated 2016).

T2 sequence (P21453 whole entry N101A): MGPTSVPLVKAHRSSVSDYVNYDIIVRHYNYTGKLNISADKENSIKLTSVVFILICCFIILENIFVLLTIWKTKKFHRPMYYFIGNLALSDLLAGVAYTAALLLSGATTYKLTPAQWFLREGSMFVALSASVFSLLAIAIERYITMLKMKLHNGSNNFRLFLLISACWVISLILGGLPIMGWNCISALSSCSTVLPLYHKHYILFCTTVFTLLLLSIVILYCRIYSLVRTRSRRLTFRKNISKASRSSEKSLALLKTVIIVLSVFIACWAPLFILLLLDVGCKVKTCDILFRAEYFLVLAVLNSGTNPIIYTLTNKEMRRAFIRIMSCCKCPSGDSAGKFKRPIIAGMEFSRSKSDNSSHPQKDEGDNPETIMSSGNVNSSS
Sequence of S1P1/EDG1 (P21453 whole entry): as the sequence (P21453 whole entry N101A) above, with A101N counted along it

What is called EC50 is the midpoint of the concentration-response curve. For the compound `CC(C)Oc1ccc(-c2nc(-c3cccc4c3CC[C@H]4N)no2)cc1C#N` [Compound 49, (R)-5-(3-(1-amino-2,3-dihydro-1H-inden-4-yl)-1,2,4-oxadiazol-5-yl)-2-isopropoxy-benzonitrile hydrochloride], the EC50 on S1P4 was 9.03 µM. The “Mouse Lymphopenia (AUEC)” value in assay [1] came to 1762.

As to `CC(C)Oc1ccc(-c2nc(-c3cccc4c3CC[C@@H]4N)no2)cc1C#N` [Compound 50, (S)-5-(3-(1-amino-2,3-dihydro-1H-inden-4-yl)-1,2,4-oxadiazol-5-yl)-2-isopropoxy-benzonitrile], the “Phosphorylation of ERK1/2 by S1P1 agonist (in words)” value at S1P1/EDG1 was “induce phosphorylation of ERK1/2”. On S1P1 N101A (S1P1 N101A), the “Effect of mutation on binding of compound (in words)” value is listed as “reduces the binding”. Moreover, the “Fold change in EC50 compared to wild type S1P1” value at S1P1 N101A (S1P1 variant N101A, phospho-ERK1/2) is given as 32. In addition, the EC50 at S1P4 came out at 7.87 µM. In assay [1], the “Mouse Lymphopenia (AUEC)” value is on record as 1632.

As for `CC(C)Oc1ccc(-c2nc(-c3cccc4c3CC[C@H]4NCCO)no2)cc1C#N` [Compound 85, (R)-5-(3-(1-(2-hydroxyethylamino)-2,3-dihydro-1H-inden-4-yl)-1,2,4-oxadiazol-5-yl)-2-isopropoxybenzonitrile], in the assay on TNBS induced colitis, the “TNBS induced colon shortening” value is listed as 15%. In addition, on S1P4, the EC50 was 1.61 µM. Moreover, the “Mouse Lymphopenia (AUEC)” value in assay [1] worked out at 1425.

On to `CC(C)Oc1ccc(-c2nc(-c3cccc4c3CC[C@H]4NCC(=O)N(C)C)no2)cc1C#N` [Compound 90, (R)-2-(4-(5-(3-cyano-4-isopropoxyphenyl)-1,2,4-oxadiazol-3-yl)-2,3-dihydro-1H-inden-1-ylamino)-N,N-dimethylacetamide hydrochloride], for which, at S1P4, the EC50 is greater than 10 µM. In addition, in assay [1], the “Mouse Lymphopenia (AUEC)” value is recorded as 1486.

Consider `CC(C)Oc1ccc(-c2nc(-c3cccc4c3CC[C@@H]4NCC(=O)N(C)C)no2)cc1C#N` [Compound 91, (S)-2-(4-(5-(3-cyano-4-isopropoxyphenyl)-1,2,4-oxadiazol-3-yl)-2,3-dihydro-1H-inden-1-ylamino)-N,N-dimethylacetamide], for which, at S1P4, the 50% effective concentration (EC50) was greater than 10 µM. In assay [1], the “Mouse Lymphopenia (AUEC)” value is 1408.
